According to patent publication US20220324835A1 (Nurix Therapeutics, Inc., priority 2018, published 2022):

How the values were obtained:
Format in all cases: cell-based, human
[1] = test system: T-cell; test: IL-2 secretion from T-cells co-stimulated with anti-CD3 and anti-CD28 antibody (Biological Example 2); settings: Homo sapiens, T-cell, fold change over baseline, primary human total T-cells, read-out: IL-2 secretion Anti-CD3/Anti-CD28 stimulation; for fold induction at 0.3 µM: 0.3 μM Cbl-b inhibitor; for fold induction at 1 µM: 1 μM Cbl-b inhibitor; for fold induction at 4 µM: 4 μM Cbl-b inhibitor
In short: (§1)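 T-cells were stimulated with anti-CD3 antibody alone or with anti-CD28 antibody, in the presence or absence of Cbl-b inhibitor. IL-2 secretion or CD25 surface staining was measured, and values expressed as fold over the uninhibited baseline […].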

[2] = test system: T-cell; test: CD25 cell surface staining on T-cells co-stimulated with anti-CD3 and anti-CD28 antibody (Biological Example 2); settings: Homo sapiens, T-cell, fold change over baseline, primary human total T-cells, read-out: CD25 staining Anti-CD3/Anti-CD28 stimulation; for fold induction at 0.3 µM: 0.3 μM Cbl-b inhibitor; for fold induction at 1 µM: 1 μM Cbl-b inhibitor; for fold induction at 4 µM: 4 μM Cbl-b inhibitor
In short: as §1

[3] = test system: T-cell; test: CD25 cell surface staining on T-cells stimulated with anti-CD3 antibody alone (Biological Example 2); settings: T-cell, fold change over baseline, primary human total T-cells, read-out: CD25 staining Anti-CD3 stimulation; for fold induction at 1 µM: 1 μM Cbl-b inhibitor; for fold induction at 8 µM: 8 μM Cbl-b inhibitor

Compound	fold induction at 0.3 µM [1]	fold induction at 1 µM [1]	fold induction at 4 µM [1]	fold induction at 0.3 µM [2]	fold induction at 1 µM [2]	fold induction at 4 µM [2]	fold induction at 1 µM [3]	fold induction at 8 µM [3]
Cn1cnnc1C(F)(F)C(C)(F)c1cccc(N2Cc3c(cccc3C(F)(F)F)C2=O)c1 (racemic) [Compound 296, 2-(3-(1,1,2-trifluoro-1-(4-methyl-4H-1,2,4-triazol-3-yl)propan-2-yl)phenyl)-4-(trifluoromethyl)isoindolin-1-one]	< 1	< 1	1.01 to 2.5	1.01 to 1.3	1.01 to 1.3	1.01 to 1.3	0.601 to 0.8	0.601 to 0.8
Cn1cnnc1CC(C)(F)c1cccc(N2Cc3c(cccc3C(F)(F)F)C2=O)c1 (racemic) [Compound 298, 2-(3-(2-fluoro-1-(4-methyl-4H-1,2,4-triazol-3-yl)propan-2-yl)phenyl)-4-(trifluoromethyl)isoindolin-1-one]	5 to 7.5	5 to 7.5	> 7.5	< 1	1.01 to 1.3	1.01 to 1.3	0.601 to 0.8	0.601 to 0.8
C[C@H](Cc1nncn1C)c1cc(N[C@@H]2CCOC2)nc(N2Cc3c(cccc3C(F)(F)F)C2=O)c1 (stereo in doubt) [Compound 362, 2-(4-((R)-1-(4-methyl-4H-1,2,4-triazol-3-yl)propan-2-yl)-6-((S)-THF-3-ylamino)pyridin-2-yl)-4-(trifluoromethyl)isoindolin-1-one]	1.01 to 2.5	1.01 to 2.5	1.01 to 2.5	< 1	1.01 to 1.3	1.01 to 1.3	0.601 to 0.8	0.801 to 1
Cc1cc(C(=O)Nc2cccc([C@H](C)Sc3nncn3C)c2)nc2ccccc12 [Compound 30, (S)-4-Methyl-N-(3-(1-((4-methyl-4H-1,2,4-triazol-3-yl)thio)ethyl)phenyl)quinoline-2-carboxamide]	1.01 to 2.5	1.01 to 2.5	2.51 to 5	1.01 to 1.3	1.01 to 1.3	1.01 to 1.3	0.601 to 0.8	0.801 to 1
C[C@H](Sc1nncn1C)c1cccc(NC(=O)c2cc(C(F)(F)F)ccn2)c1 [Compound 32, (S)-N-(3-(1-((4-Methyl-4H-1,2,4-triazol-3-yl)thio)ethyl)phenyl)-4-(trifluoromethyl)picolinamide]	< 1	1.01 to 2.5	1.01 to 2.5	1.01 to 1.3	1.01 to 1.3	1.01 to 1.3	0.601 to 0.8	> 1
CC(C)c1cccc(C(=O)Nc2cccc([C@H](C)Sc3nncn3C)c2)n1 [Compound 33, (S)-6-Isopropyl-N-(3-(1-((4-methyl-4H-1,2,4-triazol-3-yl)thio)ethyl)phenyl)picolinamide]	2.51 to 5	2.51 to 5	> 7.5	1.01 to 1.3	1.01 to 1.3	1.01 to 1.3	< 0.6	0.801 to 1
Cc1ccc(C(=O)Nc2cccc([C@H](C)Sc3nncn3C)c2)nc1C [Compound 35, (S)-5,6-Dimethyl-N-(3-(1-((4-methyl-4H-1,2,4-triazol-3-yl)thio)ethyl)phenyl)picolinamide]	1.01 to 2.5	2.51 to 5	2.51 to 5	< 1	1.01 to 1.3	1.31 to 1.5	< 0.6	0.601 to 0.8
Cc1cccc2nc(C(=O)Nc3cccc([C@H](C)Sc4nncn4C)c3)ccc12 [Compound 48, 5-Methyl-N-[3-[(1S)-1-[(4-methyl-4H-1,2,4-triazol-3-yl)sulfanyl]ethyl]phenyl]quinoline-2-carboxamide]	2.51 to 5	5 to 7.5	> 7.5	1.01 to 1.3	1.01 to 1.3	1.01 to 1.3	0.801 to 1	0.801 to 1
C[C@H](Sc1nncn1C)c1cccc(NC(=O)c2ccc(Cl)c(C(F)(F)F)n2)c1 [Compound 51, (S)-5-chloro-N-(3-(1-((4-methyl-4H-1,2,4-triazol-3-yl)thio)ethyl)phenyl)-6-(trifluoromethyl)picolinamide]	< 1	< 1	1.01 to 2.5	1.01 to 1.3	1.01 to 1.3	1.01 to 1.3	0.801 to 1	> 1
C[C@H](Sc1nncn1C)c1cccc(NC(=O)c2cc(C(C)(C)O)c(Cl)cn2)c1 [Compound 55, (S)-5-chloro-4-(2-hydroxypropan-2-yl)-N-(3-(1-((4-methyl-4H-1,2,4-triazol-3-yl)thio)ethyl)phenyl)picolinamide]	1.01 to 2.5	1.01 to 2.5	1.01 to 2.5	1.01 to 1.3	1.01 to 1.3	1.01 to 1.3	< 0.6	0.601 to 0.8
Cc1cc(C)nc(C(=O)Nc2cccc([C@H](C)Sc3nncn3C)c2)c1 [Compound 56, (S)-4,6-dimethyl-N-(3-(1-((4-methyl-4H-1,2,4-triazol-3-yl)thio)ethyl)phenyl)picolinamide]	2.51 to 5	5 to 7.5	> 7.5	1.01 to 1.3	1.01 to 1.3	1.01 to 1.3	< 0.6	0.801 to 1
Cc1ccc(C(=O)Nc2cccc([C@H](C)Sc3nncn3C)c2)nc1C(F)(F)F [Compound 61, (S)-5-methyl-N-(3-(1-((4-methyl-4H-1,2,4-triazol-3-yl)thio)ethyl)phenyl)-6-(trifluoromethyl)picolinamide]	< 1	< 1	1.01 to 2.5	< 1	1.01 to 1.3	1.01 to 1.3	0.601 to 0.8	> 1
COc1nc(C(=O)Nc2cccc([C@H](C)Sc3nncn3C)c2)cc2ccccc12 [Compound 62, (S)-1-methoxy-N-(3-(1-((4-methyl-4H-1,2,4-triazol-3-yl)thio)ethyl)phenyl)isoquinoline-3-carboxamide]	2.51 to 5	5 to 7.5	> 7.5	< 1	1.01 to 1.3	1.01 to 1.3	< 0.6	0.801 to 1
C[C@H](Sc1nncn1C)c1cccc(NC(=O)c2cc(C(F)(F)F)cc(C(F)(F)F)n2)c1 [Compound 64, (S)-N-(3-(1-((4-methyl-4H-1,2,4-triazol-3-yl)thio)ethyl)phenyl)-4,6-bis(trifluoromethyl)picolinamide]	< 1	< 1	1.01 to 2.5	< 1	< 1	1.01 to 1.3	< 0.6	0.601 to 0.8
C[C@H](Sc1nncn1C)c1cccc(NC(=O)c2cc(Cl)cc(C(F)(F)F)n2)c1 [Compound 68, (S)-4-chloro-N-(3-(1-((4-methyl-4H-1,2,4-triazol-3-yl)thio)ethyl)phenyl)-6-(trifluoromethyl)picolinamide]	1.01 to 2.5	1.01 to 2.5	1.01 to 2.5	1.01 to 1.3	1.01 to 1.3	1.01 to 1.3	0.601 to 0.8	0.801 to 1
C[C@H](Sc1nncn1C)c1cccc(NC(=O)c2cc(C(F)(F)F)cc(C3CC3)n2)c1 [Compound 69, (S)-6-cyclopropyl-N-(3-(1-((4-methyl-4H-1,2,4-triazol-3-yl)thio)ethyl)phenyl)-4-(trifluoromethyl)picolinamide]	< 1	< 1	1.01 to 2.5	1.01 to 1.3	1.01 to 1.3	1.31 to 1.5	< 0.6	< 0.6
Cc1ncc(C(=O)Nc2cccc([C@H](C)Sc3nncn3C)c2)nc1C1CC1 [Compound 70, (S)-6-cyclopropyl-5-methyl-N-(3-(1-((4-methyl-4H-1,2,4-triazol-3-yl)thio)ethyl)phenyl)pyrazine-2-carboxamide]	< 1	1.01 to 2.5	2.51 to 5	1.31 to 1.5	1.31 to 1.5	1.51 to 1.75	0.801 to 1	0.801 to 1
